Activity calls are given as the source filed them. The calls are words filed in the database; no cut-off is given here.
Assays:
Beta sliding clamp [1] = biological target: T1, Beta sliding clamp (Escherichia coli (strain K12), UniProt P0A988); assay: Inhibition of Escherichia coli DNA sliding clamp protein using N-fluorescein (FAM)-QLDLF-OH tracer by fluorescence polarization assay
[2] = biological target: Beta sliding clamp (Escherichia coli (strain K12)) (UniProt P0A988); assay: Inhibition of Escherichia coli DNA sliding clamp protein assessed as reduction in DNA replication at 31 uM in presence of circular ssDNA, RNA primer template, SSB, Pol3-alpha subunit, reconstituted gamma3delta-delta' clamp loader complex by SYBR gold dye based agarose gel electrophoresis method
Beta sliding clamp [3] = biological target: T1, Beta sliding clamp; assay: Binding affinity to Escherichia coli DNA sliding clamp protein at 298K by isothermal titration calorimetry
[4] = biological target: Beta sliding clamp (Escherichia coli (strain K12)) (UniProt P0A988); assay: Inhibition of Escherichia coli DNA sliding clamp protein assessed as reduction in DNA replication at >125 uM in presence of circular ssDNA, RNA primer template, SSB, Pol3-alpha subunit, reconstituted gamma3delta-delta' clamp loader complex by SYBR gold dye based agarose gel electrophoresis method

Chain of Beta sliding clamp (Escherichia coli (strain K12)) (P0A988 whole entry): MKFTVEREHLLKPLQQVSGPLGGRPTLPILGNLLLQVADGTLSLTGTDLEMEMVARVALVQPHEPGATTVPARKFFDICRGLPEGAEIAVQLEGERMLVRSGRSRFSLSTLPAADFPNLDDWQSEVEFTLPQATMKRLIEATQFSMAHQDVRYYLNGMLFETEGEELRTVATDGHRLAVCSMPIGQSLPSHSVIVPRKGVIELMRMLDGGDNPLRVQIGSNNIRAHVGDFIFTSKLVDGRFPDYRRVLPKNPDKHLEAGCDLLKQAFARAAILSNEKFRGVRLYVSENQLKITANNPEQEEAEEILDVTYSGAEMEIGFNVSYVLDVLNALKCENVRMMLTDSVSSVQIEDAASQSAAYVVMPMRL
T1 sequence (P0A988 whole entry): as above

Row | Compound | IC50 (Beta sliding clamp [1]) | Ki (Beta sliding clamp [1]) | inhibition [2] | Kd (Beta sliding clamp [3]) | inhibition [4]
1 | O=C(Cn1c2c(c3cc(Br)ccc31)CC[C@@H](C(=O)O)C2)N[C@H](Cc1ccccc1)C(=O)O | 30 µM | 17 µM | Active | 13 µM | 
2 | NC(=O)Cn1c2c(c3cc(Br)ccc31)CC[C@H](C(=O)O)C2 | 285 µM | 158 µM |  |  | 
3 | O=C(O)[C@H]1CCc2c([nH]c3ccc(Br)cc23)C1 | 328 µM | 182 µM |  |  | 
4 | O=C(O)CNC(=O)Cn1c2c(c3cc(Cl)ccc31)CC[C@@H](C(=O)O)C2 | 85 µM | 47 µM |  | 24 µM | 
5 | NC(=O)CNC(=O)Cn1c2c(c3cc(Br)ccc31)CC[C@@H](C(=O)O)C2 | 171 µM | 95 µM |  |  | 
6 | CC(C)C[C@H](NC(=O)Cn1c2c(c3cc(Br)ccc31)CC[C@@H](C(=O)O)C2)C(=O)O | 48 µM | 27 µM |  |  | 
7 | NC(=O)CN1CCC(NC(=O)Cn2c3c(c4cc(Br)ccc42)CC[C@@H](C(=O)O)C3)CC1 | 307 µM | 171 µM |  |  | 
8 | NC(=O)Cn1c2c(c3cc(Br)ccc31)CC[C@@H](C(=O)O)C2 | 246 µM | 137 µM |  |  | Active
9 | CC(C)(C)OC(=O)NCCCC[C@@H](NC(=O)Cn1c2c(c3cc(Br)ccc31)CC[C@@H](C(=O)O)C2)C(=O)O | 115 µM | 64 µM |  |  | 
10 | O=C(O)[C@@H]1CCc2c([nH]c3ccc(I)cc23)C1 | 175 µM | 97 µM |  |  | 
11 | NC(=O)C1CCc2c([nH]c3ccc(Cl)cc23)C1 (racemic) | > 1000 µM |  |  |  | 
12 | O=C(O)[C@@H]1CCc2c([nH]c3ccc(F)cc23)C1 | 817 µM | 454 µM |  |  | 
13 | COC(=O)C1CCc2c([nH]c3ccc(Cl)cc23)C1 (racemic) | > 1000 µM |  |  |  | 
14 | O=C(O)C1CCc2c([nH]c3ccc(Cl)cc23)C1 (racemic) | 299 µM | 166 µM |  |  | 
15 | O=C(O)CNC(=O)Cn1c2c(c3cc(Br)ccc31)CC[C@@H](C(=O)O)C2 | 20 µM | 11 µM | Active | 14 µM | 
16 | NC(=O)Cn1c2c(c3cc(Cl)ccc31)CC[C@@H](C(=O)O)C2 | 368 µM | 204 µM |  |  | Active
17 | NC(=O)c1ccc(CNC(=O)Cn2c3c(c4cc(Br)ccc42)CC[C@@H](C(=O)O)C3)cc1 | 64 µM | 36 µM |  |  | 
18 | CCNC(=O)Cn1c2c(c3cc(Cl)ccc31)CC[C@@H](C(=O)O)C2 | 347 µM | 193 µM |  |  | 
19 | O=C(Cn1c2c(c3cc(Br)ccc31)CC[C@@H](C(=O)O)C2)N[C@@H](Cc1ccccc1)C(=O)O | 27 µM | 15 µM | Active | 9 µM | 

The remaining lines, values ahead:

Row | IC50 (Beta sliding clamp [1]) | Ki (Beta sliding clamp [1]) | inhibition [2] | Kd (Beta sliding clamp [3]) | inhibition [4] | Compound
20 | 362 µM | 201 µM |  |  |  | NC(=O)Cc1ccc(NC(=O)Cn2c3c(c4cc(Cl)ccc42)CC[C@@H](C(=O)O)C3)cc1
21 | 134 µM | 74 µM |  |  | Active | O=C(O)[C@@H]1CCc2c([nH]c3ccc(Cl)cc23)C1
22 | 208 µM | 116 µM |  |  |  | O=C(Cn1c2c(c3cc(Br)ccc31)CC[C@@H](C(=O)O)C2)NCC1CCNCC1
23 | 888 µM | 493 µM |  |  |  | NC(=O)Cn1c2c(c3cc(Cl)ccc31)CC[C@H](C(=O)O)C2
24 | > 1000 µM |  |  |  |  | OCC1CCc2c([nH]c3ccc(Cl)cc23)C1 (racemic)
25 | 157 µM | 87 µM |  |  | Active | O=C(O)[C@@H]1CCc2c([nH]c3ccc(Br)cc23)C1
26 | 150 µM | 83 µM |  |  |  | CC(C)(C)OC(=O)N1CCC(CNC(=O)Cn2c3c(c4cc(Br)ccc42)CC[C@@H](C(=O)O)C3)CC1
27 | 442 µM | 246 µM |  |  |  | O=C(O)[C@H]1CCc2c([nH]c3ccc(Cl)cc23)C1

Reference: ChEMBL document CHEMBL3576851, “Bacterial Sliding Clamp Inhibitors that Mimic the Sequential Binding Mechanism of Endogenous Linear Motifs” (J Med Chem, 2015)
